From publication PMC10384572, “Marine Meroterpenoids Isolated from Gongolaria abies-marina Induce Programmed Cell Death in Naegleria fowleri” (Pharmaceuticals, 2023)

How the values were obtained:
Assay type in all cases: cell-based, Naegleria fowleri
Details in all cases: IC90 of compound, 24 h
[1] = tested on: N. fowleri ATCC® 30808 trophozoites; assay: Chromatin condensation detection (Hoechst 33342/propidium iodide)
Experimental: The evaluation of the programmed cell death induction by the meroterpenoids was performed in the ATCC® 30808™ N. fowleri trophozoites. Cells were incubated over 24 h with the IC90 (Table 1) of the compounds at 37 °C. In these experiments, the presence of different metabolic events which are characteristics of the programmed cell death process were evaluated. For this, five different apoptosis events marker kits (the Hoechst 33342/Propidium Iodide, SYTOX™ Green kit, CellROX® Deep Reagent, JC-1 Mitochondrial Membrane Potential Detection Kit, and the Celltiter-Glo® Luminescent Cell Viability Assay) were used according to manufacturer’s instructions. Furthermore, the percentage of stained cells was determined after incubating the treated and non-treated cells with the stains. For the chromatin condensation assay, the Hoechst 33342 and the PI (Life Technologies, Madrid, Spain) were used. The images were captured in the EVOS™ M5000 Imaging System (Invitrogen by Thermo Fisher Scientific). A concentration of 5 × 10^5 cell/mL was seeded and incubated with compounds over 24 h. Three different cell population can be distinguished with this kit. Firstly, healthy cells will barely show blue fluorescence whereas in the presence of condensed chromatin an intense blue fluorescence corresponding to the Hoechst 33342 stain will be observable. Finally, dead cells will show red fluorescence due to the linkage between the nucleus and the PI. In the PCD assays, the number of stained and unstained cells was measured after the performance of the experiments. Regarding the JC-1 Mitochondrial Membrane Potential assays, the ratio between the emitted red fluorescence (at 595 nm) and green fluorescence (at 535 nm) was determined. For each kit, images (×40) with at least 80 cells were selected and analyzed. […] The graphs illustrate the mean value ± SD of three different tests. Finally, a one-way analysis of variance (ANOVA) was assessed to determine the statistical differences between the treated cells and the negative control amoebae, ** p < 0.01; *** p < 0.001; **** p < 0.0001 significant differences.

[2] = tested on: N. fowleri ATCC® 30808 trophozoites; assay: Mitochondrial membrane potential (JC-1)
Experimental: The evaluation of the programmed cell death induction by the meroterpenoids was performed in the ATCC® 30808™ N. fowleri trophozoites. Cells were incubated over 24 h with the IC90 (Table 1) of the compounds at 37 °C. In these experiments, the presence of different metabolic events which are characteristics of the programmed cell death process were evaluated. For this, five different apoptosis events marker kits (the Hoechst 33342/Propidium Iodide, SYTOX™ Green kit, CellROX® Deep Reagent, JC-1 Mitochondrial Membrane Potential Detection Kit, and the Celltiter-Glo® Luminescent Cell Viability Assay) were used according to manufacturer’s instructions. Furthermore, the percentage of stained cells was determined after incubating the treated and non-treated cells with the stains. The mitochondrial damage was evaluated using two different reagents. Firstly, the JC-1 Mitochondrial Membrane Potential Detection Kit (Cayman Chemicals Vitro SA, Madrid, Spain) was used to assess the failure of the mitochondrial membrane potential. Cells were incubated with the compounds at 37 °C to finally add the JC-1 reagent after 24 h. The JC-1 dye is presented in the mitochondria of untreated cells in aggregate form and emits red fluorescence. However, when the membrane potential decreases (unhealthy cells) the dye is presented in monomers, emitting green fluorescence. Images were obtained with an EVOS™ M5000 Imaging System (Invitrogen by Thermo Fisher Scientific). In the PCD assays, the number of stained and unstained cells was measured after the performance of the experiments. Regarding the JC-1 Mitochondrial Membrane Potential assays, the ratio between the emitted red fluorescence (at 595 nm) and green fluorescence (at 535 nm) was determined. For each kit, images (×40) with at least 80 cells were selected and analyzed. […] The graphs illustrate the mean value ± SD of three different tests. Finally, a one-way analysis of variance (ANOVA) was assessed to determine the statistical differences between the treated cells and the negative control amoebae, ** p < 0.01; *** p < 0.001; **** p < 0.0001 significant differences.

[3] = tested on: N. fowleri ATCC® 30808 trophozoites; assay: Plasma membrane permeability (SYTOX Green)
Experimental: The evaluation of the programmed cell death induction by the meroterpenoids was performed in the ATCC® 30808™ N. fowleri trophozoites. Cells were incubated over 24 h with the IC90 (Table 1) of the compounds at 37 °C. In these experiments, the presence of different metabolic events which are characteristics of the programmed cell death process were evaluated. For this, five different apoptosis events marker kits (the Hoechst 33342/Propidium Iodide, SYTOX™ Green kit, CellROX® Deep Reagent, JC-1 Mitochondrial Membrane Potential Detection Kit, and the Celltiter-Glo® Luminescent Cell Viability Assay) were used according to manufacturer’s instructions. Furthermore, the percentage of stained cells was determined after incubating the treated and non-treated cells with the stains.
The evaluation of the damage in the cell membrane permeability was conducted with the SYTOX Green assay (Life Technologies, Madrid, Spain). Amoebae were incubated with the molecules over 24 h at 37 °C. An EVOS™ M5000 Imaging System (Invitrogen by Thermo Fisher Scientific) was used to observe the trophozoites. Cells with compromised plasma membrane permeability show bright green fluorescence as the stain reaches the nucleus. However, no fluorescence is observed in negative control cells.
In the PCD assays, the number of stained and unstained cells was measured after the performance of the experiments. Regarding the JC-1 Mitochondrial Membrane Potential assays, the ratio between the emitted red fluorescence (at 595 nm) and green fluorescence (at 535 nm) was determined. For each kit, images (×40) with at least 80 cells were selected and analyzed. […] The graphs illustrate the mean value ± SD of three different tests. Finally, a one-way analysis of variance (ANOVA) was assessed to determine the statistical differences between the treated cells and the negative control amoebae, ** p < 0.01; *** p < 0.001; **** p < 0.0001 significant differences.

Compound | Apoptotic phase suggested by Hoechst/PI staining [1] | Chromatin condensation (Hoechst 33342 stain) [1] | Propidium iodide (PI) red fluorescence [1] | Mitochondrial membrane potential (JC-1) [2] | Plasma membrane permeability damage (SYTOX green) [3]
COc1c(C)cc(O)cc1C/C=C(\C)CC(=O)/C=C(\C)CCC[C@@H](C)C(=O)/C=C/C(C)(C)O [1′Methoxyamentadione (3), 1′-methoxyamentadione] | early apoptotic phase | induced DNA condensation | no red fluorescence | mitochondrial membrane potential disruption | plasma membrane permeability damage
COc1c(C)cc(O)cc1C/C=C(\C)CC(=O)/C=C(/C)CCC[C@@H](C)C(=O)/C=C/C(C)(C)O [6Z-1′Methoxyamentadione (2), 6Z-1′-methoxyamentadione] | late apoptotic phase | induced DNA condensation | showed red fluorescence | mitochondrial membrane potential disruption | plasma membrane permeability damage
COc1c(C)cc(O)cc1C/C=C(\C)CC(=O)/C=C(\C)CCCC(C)=O [Cystomexicone B (6), cystomexicone B] | early apoptotic phase | induced DNA condensation | no red fluorescence | mitochondrial membrane potential disruption | plasma membrane permeability damage
COc1c(C)cc(O)cc1C/C=C(\C)CC(=O)C/C(C)=C/CC[C@@H](C)C(=O)/C=C/C(C)(C)O [Gongolarone B (1), gongolarone B] | late apoptotic phase | induced DNA condensation | showed red fluorescence | mitochondrial membrane potential disruption | plasma membrane permeability damage
